Assay [1] relates to guinea pig platelet aggregation induced by ADP. Briefly: inhibition of guinea pig platelet aggregation induced in vitro by ADP. Format: cell-based. The settings on record: Cavia porcellus, ADP 5.45×10^-7 M, platelet rich plasma, 37° C. As for the experimental part: a. The compounds were examined for their ability to inhibit guinea pig platelet aggregation induced, in vitro, by 5.45×10^-7 M adenosine diphosphate (ADP).
The method consisted of diluting the compound immediately before use from a 10 mg/ml solution in ethanol to a 1 mg/ml solution with saline and then adding the appropriate volume to 0.5 ml of platelet rich plasma. The mixture was stirred at 37° C. for 1 minute before 25 μl of an ADP solution was added to give a final ADP concentration of 5.45×10^-7 M. The aggregation response was then recorded relative to the control.

For assay [2], the system named is 5-hydroxy-tryptamine-induced bronchoconstriction. Nature of the assay: inhibition of 5-hydroxytryptamine-induced bronchoconstriction (Konsett-Rossler preparation). Format: in vivo, guinea pig. The settings on record: Cavia porcellus; intravenous, 2 minutes prior to 5-hydroxytryptamine dose. As for the experimental part: a. The compounds were examined for their ability to inhibit 5-hydroxy-tryptamine-induced bronchoconstriction in the anaesthetised, artifically respired guinea pig (Konsett-Rossler preparation).
H. Konsett and R. Rossler, (1940), Naunyn-Schneidebergs Arch. Exp. Path. Pharmak., 195, 71.
After preparation of the guinea pig, a dose of 5-hydroxytryptamine producing an adequate response was determined by dosing, i.v., every 6 minutes. This dose was usually 10 μg. After a standard response was obtained, compounds were given intra-venously 2 minutes prior to the next standard dose and dosing of 5-hydroxytryptamine was continued every 6 minutes until the response returned to control values.

In assay [3] the test system is pentagastrin-stimulated gastric acid secretion. Briefly: inhibition of pentagastrin-stimulated gastric acid secretion, anaesthetised perfused rat stomach (Ghosh and Schild preparation). Format: in vivo. The settings on record: intravenous. An excerpt:
a. The compounds were examined for their ability to inhibit pentagastrin-stimulated gastric acid secretion in the anaesthetised, perfused rat stomach preparation (Ghosh and Schild preparation).
M. N. Ghosh and H. O. Schild, (1958), Brit. J. Pharmacol, 13, 54.
The compounds were given intravenously.

Assay [4] has as its system arterial blood pressure. Nature of the assay: effect on arterial blood pressure in the anaesthetised, normotensive rat. Format: in vivo. The settings on record: intravenous, dose range 0.001 → 1.0 mg/kg. On the procedure:
a. The effect of the compounds on arterial blood pressure was determined in the anaesthetised, normotensive rat. The rat preparation was similar to that desribed in "Pharmacological experiments on intact preparations", E. and S. Livingstone, Edinburgh and London, 1970, p. 63.
The active compounds were predominantly depressor agents in the normotensive rat.

For assay [5], the system named is histamine-induced asphyxic collapse. Briefly: protection against aerosol administered, histamine-induced asphyxic collapse. Format: in vivo, guinea pig. An excerpt:
b. The compounds were examined for their ability to protect against aerosol administered, histamine-induced asphyxic collapse in guinea pigs.
M. A. Wasserman and R. L. Griffen, (1975), Am. Rev. Resp. Dis., 111, 946.

The subject of assay [6] is gerbil colon. Nature of the assay: prostaglandin-like activity on the isolated perfused gerbil colon. The settings on record: De Jalon's saline, 32° C. On the procedure: (§1) The compounds were tested for prostaglandin-like and for prostaglandin antagonist activity on the isolated perfused gerbil colon preparation (smooth muscle). This has been shown by J. R. Weeks, J. R. Schultz and W. E. Brown, (1968), J. App. Physiol, 25, 783, to have greater precision and sensitivity than other preparations. A 15 mm portion of the descending colon is suspended in an organ bath and perfused with De Jalon's saline at 32° C. Compounds were given in a three minute cycle with a 45 second contact time and a 15 second washout time. Antagonist compounds were given with a one minute pre-contact time.
Prostaglandin-like activity was determined using the method of H. O. Schlid, (1942), J. Physiol., 101, 115, which is a standard 4×4 latin square assay. Some of the compounds stimulated the gerbil colon to contract which is a prostaglandin-like effect, and the results are shown in Table 15.

Assay [7] concerns human platelet aggregation induced by collagen. Briefly: inhibition of human platelet aggregation induced in vitro by collagen. Format: cell-based. The settings on record: 10^-4 M, collagen, platelet rich plasma, 37° C. As for the experimental part:
b. The compounds were examined for their ability to inhibit human platelet aggregation induced, in vitro, either by adenosine diphosphate (ADP) or collagen. The compounds were added in saline or dimethylformamide to platelet rich plasma at 37° C. to give a final concentration of 10^-4 M. After 3 minutes the platelets were challenged with ADP or collagen. The aggregation response was then recorded relative to the control.

Assay [8] deals with gerbil colon; contraction to prostaglandin F2α. Briefly: prostaglandin antagonist activity on the isolated perfused gerbil colon (contraction to prostaglandin F2α). The settings on record: Meriones unguiculatus; reduction of contraction to prostaglandin F2α; one minute pre-contact time. As for the experimental part:
as §1
Antagonist activity was determined by measuring the percentage reduction of the contraction to two standard doses of prostaglandin F2α which gave responses between 20% and 80% of maximum response.

Assay [9] deals with antifertility activity. Briefly: antifertility activity in female mice. Type of assay: in vivo. The settings on record: 50-100 mg/kg, s.c.; 5 days pre-coitally and 10 days post-coitally. On the procedure: Antifertility activity was determined by subcutaneous dosing of female mice for 5 days pre-coitally and 10 days post-coitally. Three female mice per group were used and these were mated with males of proven fertility and mating confirmed by examination for copulation plugs.

Assay [10] has as its system total peripheral resistance. Nature of the assay: total peripheral resistance, intravenous. Type of assay: in vivo, beagle dog. The settings on record: dose range of 0.01-10 mg/kg, intra-venously. On the procedure:
(§2) b. The vasodilator activity of the compounds was determined in the femoral artery of the hind limb of the anaesthetised beagle dog. The method used was similar to that described by J. Nakano and J. R. McCurdy, (1967), J. Pharmac. Exp. Ther., 156, 538.
In other experiments the compounds were administered into the left femoral vein and the right femoral arterial pressure and cardiac output were monitored. From these experiments, total peripheral resistance (TPR) was calculated from the expression: [formula]

For assay [11], the system named is femoral artery of the hind limb. Nature of the assay: vasodilator activity in femoral artery of the hind limb (vascular resistance). Type of assay: in vivo, beagle dog. The settings on record: dose range of 0.01-1 mg/kg, intra-arterially. On the procedure:
as §2
The compounds were administered into the iliac artery and the effects on both flow and pressure in the hind limb were recorded. Changes in vascular resistance (R) were calculated from the following expression: [formula]

Molecules are shown by their SMILES. ≈ marks a conversion by molar mass, not a printed value.

As usually defined, the IC50 is the concentration that inhibits the measured activity by half. Read a high IC50 as weaker potency. As usually defined, the ED50 is the dose that gives a 50% effect, or the effect in half of the subjects. A low value points to greater potency. By inhibition is commonly meant the drop in the measured response relative to a control, in per cent.

Take `CCCCCCC(C)(O)CCN1C(=O)CCC(=O)C1CCCCCCC(=O)OCC` (stereo not shown) [Compound 56]: in assay [1], half-maximal inhibition (IC50) required 51 µM. In assay [2], `CCCCCCCC(C)(O)CCN1C(=O)CCC(=O)C1CCCCCCC(=O)OCC` (stereo not shown) [Compound 57, 2-(6'-Ethoxycarbonyl-n-hexyl)-1-(3"-hydroxy-3"-methyl-n-decyl)-piperidin-3,6-dione] registered an ED50 of 0.253 mg/kg.

As for `CCCCCC(C)C(C)(O)CCN1C(=O)CCC(=O)C1CCCCCCC(=O)OCC` (stereo not shown) [Compound 60], the half-inhibitory concentration (IC50) in assay [1] was 11 µM. In addition, the ED50 in assay [3] amounted to 1 mg/kg. Compound `CCCCCC(C)(O)CCN1C(=O)CC(=O)C1CCCCCCC(=O)OCC` (stereo not shown) [Compound 62, 2-(6'-Ethoxycarbonyl-n-hexyl)-1-(3"-hydroxy-3"-methyl-n-octyl)-pyrrolidin-3,5-dione] returned a half-maximal inhibitory concentration (IC50) in assay [1] of 20 µM. For the same compound, the “% Depression at 1 mg/kg” value in [4] is on record as 70%. Also, the results for the median effective dose (ED50) in [3] and in assay [2] were 0.72 mg/kg and 0.088 mg/kg, respectively.

Regarding `CCCCCCCC(C)(O)CCN1C(=O)CC(=O)C1CCCCCCC(=O)OCC` (stereo not shown) [Compound 64, 2-(6'-Ethoxycarbonyl-n-hexyl)-1-(3"-hydroxy-3"-methyl-n-decyl)-pyrrolidin-3,5-dione], the IC50 in assay [1] is 9 µM. In assay [2], this compound returned an ED50 of 0.011 mg/kg. In assay [5], the “protecting against histamine challenge” value is reported as “very effective”. The compound `CCCCCCC(O)(CC)CCN1C(=O)CC(=O)C1CCCCCCC(=O)OCC` (stereo not shown) [Compound 68, 2-(6'-Ethoxycarbonyl-n-hexyl)-1-(3"-hydroxy-3"-ethyl-n-nonyl)-pyrrolidin-3,5-dione] had an IC50 in assay [1] of 4 µM. For the compound `CCOC(=O)CCCCCCC1C(=O)CCC(=O)N1CCCO` (stereo not shown) [Compound 74], the Concentration/ml. for contractions in [6] fell in the range of 4 to 8 µg/mL. With `CCCCCC(O)CCN1C(=O)CC(=O)C1CCCCCCC(=O)OCC` (stereo not shown) [Compound 75, 2-(6'-ethoxycarbonyl-n-hexyl)-1-(3"-hydroxy-n-octyl)-pyrrolidin-3,5-dione], 100 µM produced 61% inhibition in [7]. The same compound yielded a Concentration/ml. for contractions in assay [6] of 0.2 to 0.5 µg/mL. `CCCCCC(O)CCN1C(=O)CC(O)C1CCCCCCC(=O)OCC` (stereo not shown) [Compound 76, 2-(6'-ethoxycarbonyl-n-hexyl)-3-hydroxy-1-(3"-hydroxy-n-octyl)-pyrrolidin5-one]: the IC50 in [1] was determined as 147 µM. In [7], this compound returned an inhibition at 100 µM of 79%.

`CCCCCCC(O)CCN1C(=O)CC(=O)C1CCCCCCC(=O)OCC` (stereo not shown) [Compound 77, 2-(6'-ethoxycarbonyl-n-hexyl)-1-(3"-hydroxyn-nonyl)-pyrrolidin-3,5-dione]: half-maximal inhibition in assay [1] (IC50) was put at 5.4 µM. Moreover, the “% Depression at 1 mg/kg” value in [4] came to 30%. In addition, the ED50 in [3] stood at 2.6 mg/kg; in [2], 0.38 mg/kg. As to `CCCCCCC(O)CCN1C(=O)CCC(=O)C1CCCCCCC(=O)OCC` (stereo not shown) [Compound 78], the inhibition at 100 µM in assay [7] is 65%. Moreover, the “% Depression at 1 mg/kg” value in [4] came to 30%. Regarding `CCCCCC(CCN1C(=O)CCC(O)C1CCCCCCC(=O)OCC)OCc1ccccc1` (stereo not shown) [Compound 79], the IC50 in assay [8] worked out at 0.76 µg/mL (≈ 1.55 µM). On the same count and under the same terms, as for `CCOC(=O)CCCCCCC1C(O)CCC(=O)N1CCCOCc1ccccc1` (stereo not shown) [Compound 80], the figure is 3.1 µg/mL (≈ 7.39 µM); as for `CCCCCC(CCN1C(=O)CC(O)C1CCCCCCC(=O)OCC)OCc1ccccc1` (stereo not shown) [Compound 81], 0.17 µg/mL (≈ 0.357 µM). As to `CCCCCCC(C)(O)CCN1C(=O)CC(O)C1CCCCCCC(=O)OCC` (stereo not shown) [Compound 86], in [1], the IC50 was found to be 55 µM. Besides, in [2], the 50% effect level (ED50) was put at a dose of 0.505 mg/kg. `CCCCCCC(O)CCN1C(=O)CC(O)C1CCCCCCC(=O)OCC` (stereo not shown) [Compound 98] returned an IC50 in assay [8] of 2.15 µg/mL (≈ 5.38 µM). `CCCCCCCCN1C(=O)CCC(O)C1CCCCCCC` (stereo not shown) [Compound 99, 2-n-Heptyl-3-hydroxy-1-n-octyl-piperidin-6-one] had an IC50 in assay [8] of 1.55 µg/mL (≈ 4.76 µM). `CCCCCC(O)CCN1CCCC(O)C1CCCCCCCO` (stereo not shown) [Compound 100]: the Concentration/ml. for contractions in assay [6] lay within 0.01 to 0.02 µg/mL. Consider `CCCCCC(CCN1CCC(O)C1CCCCCCCO)OCc1ccccc1` (stereo not shown) [Compound 101], for which the Concentration/ml. for contractions in [6] fell in the range of 0.04 to 0.10 µg/mL. For the compound `CCCCCC(O)CCN1CCC(O)C1CCCCCCCO` (stereo not shown) [Compound 102], in [7], 100 µM produced 71% inhibition. The same compound showed a Concentration/ml. for contractions in assay [6] of 0.04 to 0.10 µg/mL. In [8], `OCCCCCCCC1C(O)CCCN1CCCOCc1ccccc1` (stereo not shown) [Compound 103] had an IC50 of 0.35 µg/mL (≈ 0.963 µM). On the same count and under the same terms, under `CCCCCC(CCN1CCCC(O)C1CCCCCCCO)OCc1ccccc1` (stereo not shown) [Compound 104, 1-(3'-Benzyloxy-n-octyl)-3-hydroxy-2-(7"-hydroxy-n-heptyl)piperidine] stands 0.11 µg/mL (≈ 0.254 µM). The compound `CCCCCCC(O)CCN1CCCC(O)C1CCCCCCCO` (stereo not shown) [Compound 105] returned an inhibition at 100 µM in assay [7] of 78%. The “% Depression at 1 mg/kg” value in assay [4] stood at 20%.

As to `CCCCCCC(O)CCN1CCC(O)C1CCCCCCCO` (stereo not shown) [Compound 108], in assay [9], the antifertility activity entry was “active”. With `CCCCCCCCN1CCCC(O)C1CCCCCCC` (stereo not shown) [Compound 112, 2-n-heptyl-3-hydroxy-1-n-octyl-piperidine], in assay [7], the inhibition at 100 µM was determined as 77%. The antifertility activity result in assay [9] was “active”. The “total peripheral resistance (TPR)” value in [10] is listed as “decreased total peripheral resistance”. Also, the vascular resistance entry in assay [11] is recorded as “decreased vascular resistance”.

Source of the values: patent publication US4299970A, “Oxy-alkylamino carboxylic esters” (Beecham Group Limited, priority 1974, dated 1981).
